Measurements taken from article PMC10893631, “Receptor-based pharmacophore modeling, molecular docking, synthesis and biological evaluation of novel VEGFR-2, FGFR-1, and BRAF multi-kinase inhibitors” (BMC Chemistry, 2024).

How the values were obtained:
Experiment in all cases: NCI SRB growth inhibition (single dose 10 µM / five-dose)
Format in all cases: cell-based, human
[1] = system: 786–0; details: Homo sapiens; 786–0 (Renal cancer), 10 µM; read-out: GI%
Method in brief: (§1)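 Single-dose screen output reported as mean graph; selected compounds then run at five concentrations. Cells pre-grown 24 h before drug addition, fixed with TCA, and quantified by SRB dye binding.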

[2] = system: A498; details: Homo sapiens; A498 (Renal cancer), 10 µM; read-out: GI%
Method in brief: as §1

[3] = system: A549/ATCC; details: Homo sapiens; A549/ATCC (Non-small cell lung cancer), 10 µM; read-out: GI%
Method in brief: as §1

[4] = system: ACHN; details: Homo sapiens; ACHN (Renal cancer), 10 µM; read-out: GI%
Method in brief: as §1

[5] = system: BT-549; details: Homo sapiens; BT-549 (Breast cancer), 10 µM; read-out: GI%
Method in brief: as §1

[6] = system: CAKI-1; details: Homo sapiens; CAKI-1 (Renal cancer), 10 µM; read-out: GI%
Method in brief: as §1

[7] = system: CCRF-CEM; details: Homo sapiens; CCRF-CEM (Leukemia), 10 µM; read-out: GI%
Method in brief: as §1

[8] = system: COLO 205; details: Homo sapiens; COLO 205 (Colon cancer), 10 µM; read-out: GI%
Method in brief: as §1

[9] = system: HCT-116; details: Homo sapiens, HCT-116; read-out: GI%
Method in brief: as §1

[10] = system: HCT-15; details: Homo sapiens; HCT-15 (Colon cancer), 10 µM; read-out: GI%
Method in brief: as §1

[11] = system: HS 578 T; details: Homo sapiens; HS 578 T (Breast cancer), 10 µM; read-out: GI%
Method in brief: as §1

[12] = system: IGROV1; details: Homo sapiens, IGROV-1; IGROV1 (Ovarian cancer), 10 µM; read-out: GI%
Method in brief: as §1

[13] = system: K-562; details: Homo sapiens, K562; K-562 (Leukemia), 10 µM; read-out: GI%
Method in brief: as §1

[14] = system: KM12; details: Homo sapiens; KM12 (Colon cancer), 10 µM; read-out: GI%
Method in brief: as §1

[15] = system: MALME-3 M; details: Homo sapiens; MALME-3 M (Melanoma), 10 µM; read-out: GI%
Method in brief: as §1

[16] = system: MDA-MB-231/ATCC; details: Homo sapiens; MDA-MB-231/ATCC (Breast cancer), 10 µM; read-out: GI%
Method in brief: as §1

[17] = system: MDA-MB-435; details: Homo sapiens; MDA-MB-435 (Melanoma), 10 µM; read-out: GI%
Method in brief: as §1

[18] = system: NCI/ADR-RES; details: Homo sapiens; NCI/ADR-RES (Ovarian cancer), 10 µM; read-out: GI%
Method in brief: as §1

[19] = system: OVCAR-4; details: Homo sapiens; OVCAR-4 (Ovarian cancer), 10 µM; read-out: GI%
Method in brief: as §1

[20] = system: OVCAR-8; details: Homo sapiens; OVCAR-8 (Ovarian cancer), 10 µM; read-out: GI%
Method in brief: as §1

[21] = system: RXF 393; details: Homo sapiens; RXF 393 (Renal cancer), 10 µM; read-out: GI%
Method in brief: as §1

[22] = system: SK-MEL-28; details: Homo sapiens; SK-MEL-28 (Melanoma), 10 µM; read-out: GI%
Method in brief: as §1

[23] = system: SK-MEL-2; details: Homo sapiens; SK-MEL-2 (Melanoma), 10 µM; read-out: GI%
Method in brief: as §1

[24] = system: SK-OV-3; details: Homo sapiens; SK-OV-3 (Ovarian cancer), 10 µM; read-out: GI%
Method in brief: as §1

[25] = system: SNB-75; details: Homo sapiens; SNB-75 (CNS cancer), 10 µM; read-out: GI%
Method in brief: as §1

[26] = system: UACC-257; details: Homo sapiens; UACC-257 (Melanoma), 10 µM; read-out: GI%
Method in brief: as §1

| Structure (SMILES) | inhibition at 10 µM [1] | inhibition at 10 µM [2] | inhibition at 10 µM [3] | inhibition at 10 µM [4] | inhibition at 10 µM [5] | inhibition at 10 µM [6] | inhibition at 10 µM [7] | inhibition at 10 µM [8] | inhibition at 10 µM [9] | inhibition at 10 µM [10] | inhibition at 10 µM [11] | inhibition at 10 µM [12] | inhibition at 10 µM [13] | inhibition at 10 µM [14] | inhibition at 10 µM [15] | inhibition at 10 µM [16] | inhibition at 10 µM [17] | inhibition at 10 µM [18] | inhibition at 10 µM [19] | inhibition at 10 µM [20] | further results |
| --- | --- | --- | --- | --- | --- | --- | --- | --- | --- | --- | --- | --- | --- | --- | --- | --- | --- | --- | --- | --- | --- |
| COc1ccc(-c2nc3cc(C(=O)NN=Cc4cccc(O)c4)ccc3[nH]2)cc1 [8i, N'-(3-Hydroxybenzylidene)-2-(4-methoxyphenyl)-1H-benzo[d]imidazole-5-carbohydrazide] | 23.4% | < 5% | 11.2% | < 5% | 32.7% | 5.16% | 80.8% | 32.4% | 42.8% | 5.17% | 52.6% | 11.2% | 60.6% | 38.7% | > 100% | 22.4% | 63.8% | < 5% | 27.1% | 38.1% | inhibition at 10 µM [21]: 14.5%; inhibition at 10 µM [22]: 52.9%; inhibition at 10 µM [23]: 37.5%; inhibition at 10 µM [24]: 54%; inhibition at 10 µM [25]: 17.8%; inhibition at 10 µM [26]: 47.4% |
| O=C(NN=Cc1cccc(O)c1)c1ccc2[nH]c(-c3ccccc3)nc2c1 [8b, N'-(3-Hydroxybenzylidene)-2-phenyl-1H-benzo[d]imidazole-5-carbohydrazide] | 5.43% | < 5% | < 5% | < 5% | < 5% | 9.41% | 54.4% | < 5% | < 5% | < 5% | < 5% | 13% | 21.4% | 19.8% | 39.7% | 14.1% | 5.45% | < 5% | 12.4% | 10.3% | inhibition at 10 µM [21]: < 5%; inhibition at 10 µM [22]: < 5%; inhibition at 10 µM [23]: < 5%; inhibition at 10 µM [24]: 25.6%; inhibition at 10 µM [25]: 6.56%; inhibition at 10 µM [26]: < 5% |
